One block for each compound: values may come before it. Activity calls are given as the source filed them. No cut-off for these calls is given here.
Legend:
Galectin-1 [1] = molecular target: T1, Galectin-1 (Homo sapiens, UniProt P09382); experiment: Binding affinity to human galectin 1 assessed as dissociation constant incubated for 30 mins in presence of TDGA probe by fluorescence polarization assay
Galectin-3 [2] = molecular target: T2, Galectin-3 (Homo sapiens, UniProt P17931); experiment: Binding affinity to human galectin-3 assessed as dissociation constant by fluorescence polarization assay
T2 sequence (P17931 whole entry): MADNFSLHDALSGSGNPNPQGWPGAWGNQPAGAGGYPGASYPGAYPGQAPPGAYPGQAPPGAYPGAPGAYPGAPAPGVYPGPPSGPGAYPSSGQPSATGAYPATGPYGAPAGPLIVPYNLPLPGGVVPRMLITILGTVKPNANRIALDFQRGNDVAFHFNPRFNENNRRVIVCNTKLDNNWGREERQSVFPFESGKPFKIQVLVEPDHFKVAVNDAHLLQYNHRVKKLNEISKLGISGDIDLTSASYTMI

[3] = Cytotoxicity against human A549 cells assessed as inhibition of cell growth incubated for 72 hrs by MTT assay; type: toxicity, cell-based
[4] = Lipophilicity, logD of compound at pH 7.4 preincubated with octanol for 5 mins followed by phosphate buffer addition and measured after 1 hrs by shakeflask method based LC-MS/MS analysis; type: physicochemical; conditions: time 65 min
[5] = Apparent permeability from apical to basolateral side in human Caco-2 cells at 10 uM incubated for 90 mins by LC-MS/MS analysis; type: ADME, cell-based
[6] = Apparent permeability from basolateral to apical side in human Caco-2 cells at 10 uM incubated for 90 mins by LC-MS/MS analysis; type: ADME, cell-based
[7] = Metabolic stability in human hepatocytes assessed as intrinsic clearance measured per 10^6 cells at 2 uM incubated for 15 to 120 mins by LC-MS/MS analysis; type: ADME, cell-based, Hepatocyte; conditions: time 15-120 min, read-out: CLH
[8] = Metabolic stability in mouse hepatocytes assessed as intrinsic clearance measured per 10^6 cells at 2 uM incubated for 15 to 120 mins by LC-MS/MS analysis; type: ADME, cell-based, Hepatocyte; conditions: time 15-120 min, read-out: CLH
[9] = Protein binding in human plasma assessed as unbound fraction at 2 uM incubated for 5 hrs by equilibrium dialysis based LC-MS/MS analysis; type: ADME, cell-free
[10] = Protein binding in mouse plasma assessed as unbound fraction at 2 uM incubated for 5 hrs by equilibrium dialysis based LC-MS/MS analysis; type: ADME, cell-free
Galectin-4 [11] = molecular target: T3, Galectin-4 (Homo sapiens, UniProt P56470); experiment: Binding affinity to N-terminal human Galectin-4 assessed as dissociation constant by fluorescence polarization assay
T3 sequence (P56470 whole entry): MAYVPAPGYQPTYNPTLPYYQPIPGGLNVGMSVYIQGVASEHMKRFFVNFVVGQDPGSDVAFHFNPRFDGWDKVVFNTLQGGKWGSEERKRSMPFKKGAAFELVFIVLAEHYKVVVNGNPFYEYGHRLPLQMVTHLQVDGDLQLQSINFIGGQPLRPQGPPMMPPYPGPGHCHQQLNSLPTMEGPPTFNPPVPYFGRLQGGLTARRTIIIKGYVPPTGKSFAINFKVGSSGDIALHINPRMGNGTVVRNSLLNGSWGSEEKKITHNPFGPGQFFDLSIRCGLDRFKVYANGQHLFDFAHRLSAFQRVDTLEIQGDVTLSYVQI

Galectin-4 [12] = molecular target: T3, Galectin-4; experiment: Binding affinity to C-terminal human Galectin-4 assessed as dissociation constant by fluorescence polarization assay
Galectin-7 = Galectin-7 (Homo sapiens, UniProt P47929); experiment: Binding affinity to human Galectin-7 assessed as dissociation constant by fluorescence polarization assay
Galectin-7, sequence (P47929 whole entry): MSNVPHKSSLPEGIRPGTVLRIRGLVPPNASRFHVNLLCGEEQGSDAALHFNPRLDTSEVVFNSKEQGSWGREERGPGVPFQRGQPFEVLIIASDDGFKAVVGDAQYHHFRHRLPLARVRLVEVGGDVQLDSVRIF

Galectin-8 [13] = molecular target: T4, Galectin-8 (Homo sapiens, UniProt O00214); experiment: Binding affinity to N-terminal human Galectin-8 assessed as dissociation constant by fluorescence polarization assay
T4 sequence (O00214 whole entry): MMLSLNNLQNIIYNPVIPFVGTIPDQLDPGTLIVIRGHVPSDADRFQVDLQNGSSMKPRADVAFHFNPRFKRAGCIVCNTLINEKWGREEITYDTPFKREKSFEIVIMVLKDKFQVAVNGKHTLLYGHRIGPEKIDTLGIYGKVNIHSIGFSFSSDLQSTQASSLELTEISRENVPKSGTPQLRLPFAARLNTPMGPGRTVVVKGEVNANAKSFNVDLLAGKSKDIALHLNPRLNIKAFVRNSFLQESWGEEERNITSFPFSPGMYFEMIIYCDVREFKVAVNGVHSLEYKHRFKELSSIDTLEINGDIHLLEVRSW

Galectin-8 [14] = molecular target: T4, Galectin-8; experiment: Binding affinity to C-terminal human Galectin-8 assessed as dissociation constant by fluorescence polarization assay
Galectin-9 [15] = molecular target: T5, Galectin-9 (Homo sapiens, UniProt O00182); experiment: Binding affinity to N-terminal human Galectin-9 assessed as dissociation constant by fluorescence polarization assay
T5 sequence (O00182 whole entry): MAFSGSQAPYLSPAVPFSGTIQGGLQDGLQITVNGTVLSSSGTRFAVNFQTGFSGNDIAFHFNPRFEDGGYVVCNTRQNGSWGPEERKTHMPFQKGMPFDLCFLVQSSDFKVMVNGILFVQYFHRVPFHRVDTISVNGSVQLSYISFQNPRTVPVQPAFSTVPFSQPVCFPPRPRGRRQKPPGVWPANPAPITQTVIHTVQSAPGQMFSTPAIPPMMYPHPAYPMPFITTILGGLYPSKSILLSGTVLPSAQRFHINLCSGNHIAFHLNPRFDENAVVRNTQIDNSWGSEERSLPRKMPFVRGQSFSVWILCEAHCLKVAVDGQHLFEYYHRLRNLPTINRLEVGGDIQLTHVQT

Galectin-9 [16] = molecular target: T5, Galectin-9; experiment: Binding affinity to C-terminal human Galectin-9 assessed as dissociation constant by fluorescence polarization assay
Galectin-1 [17] = molecular target: T6, Galectin-1 (Mus musculus, UniProt P16045); experiment: Binding affinity to mouse Galectin-1 assessed as dissociation constant incubated for 30 mins in the presence of TDGA probe by fluorescence polarization assay
T6 sequence (P16045 whole entry): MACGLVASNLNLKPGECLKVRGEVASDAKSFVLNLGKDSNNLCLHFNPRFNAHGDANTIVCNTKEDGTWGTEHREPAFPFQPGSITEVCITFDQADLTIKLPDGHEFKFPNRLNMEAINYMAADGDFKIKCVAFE

Galectin-3 [18] = molecular target: T7, Galectin-3 (Mus musculus, UniProt P16110); experiment: Binding affinity to mouse Galectin-3 assessed as dissociation constant by fluorescence polarization assay
T7 sequence (P16110 whole entry): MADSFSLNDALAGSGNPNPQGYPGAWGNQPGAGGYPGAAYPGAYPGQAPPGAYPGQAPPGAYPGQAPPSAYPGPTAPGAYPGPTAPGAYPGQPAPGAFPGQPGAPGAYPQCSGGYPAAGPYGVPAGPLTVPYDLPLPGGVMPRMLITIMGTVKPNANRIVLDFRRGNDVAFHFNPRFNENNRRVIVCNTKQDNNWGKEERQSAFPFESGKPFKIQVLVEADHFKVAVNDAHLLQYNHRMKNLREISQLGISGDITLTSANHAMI

Galectin-1 [19] = molecular target: T1, Galectin-1; experiment: Binding affinity to human galectin-1 assessed as dissociation constant by SPR analysis
Galectin-1 [20] = molecular target: T6, Galectin-1; experiment: Binding affinity to mouse full-length galectin-1 assessed as dissociation constant by SPR analysis
Galectin-3 [21] = molecular target: T2, Galectin-3; experiment: Binding affinity to human galectin-3 assessed as dissociation constant by SPR analysis
Galectin-3 [22] = molecular target: T7, Galectin-3; experiment: Binding affinity to mouse full-length galectin-3 assessed as dissociation constant by SPR analysis
A549 = experiment: Cytotoxicity against human A549 cells assessed as reduction in cell viability incubated for 72 hrs by MTT assay relative to control; type: toxicity, cell-based; conditions: a549, 72 h
Jurkat [23] = experiment: Inhibition of galectin-1 induced apoptosis in human Jurkat T cells assessed as reduction in caspase-3 activation incubated for 24 hrs by CellEvent caspase-3/7 green fluorescent detection reagent based imaging analysis
[24] = Clearance in C57BL/6 mouse at 1 mg/kg, iv measured upto 8 hrs by HPLC analysis; type: ADME, organism-based; conditions: in vivo
[25] = Volume of distribution at steady state in C57BL/6 mouse at 1 mg/kg, iv measured upto 8 hrs by HPLC analysis; type: ADME, organism-based; conditions: in vivo, read-out: Vdss
[26] = Tmax in C57BL/6 mouse at 10 mg/kg, po or 1 mg/kg, iv by HPLC analysis; type: ADME, organism-based; conditions: in vivo
[27] = Cmax in C57BL/6 mouse at 10 mg/kg, po or 1 mg/kg, iv by HPLC analysis; type: ADME, organism-based; design: dose 10 mg/kg, route po; conditions: in vivo
[28] = AUCinfinity in C57BL/6 mouse at 10 mg/kg, po or 1 mg/kg, iv by HPLC analysis; type: ADME, organism-based; design: dose 10 mg/kg, route po; conditions: in vivo
[29] = Oral bioavailability in C57BL/6 mouse at 10 mg/kg measured upto 24 hrs by HPLC analysis; type: ADME, organism-based; conditions: in vivo
Galectin-1 [30] = molecular target: T1, Galectin-1; experiment: Binding affinity to galectin-1 (unknown origin) assessed as dissociation constant
Galectin-3 [31] = molecular target: T2, Galectin-3; experiment: Binding affinity to galectin-3 (unknown origin) assessed as dissociation constant
Jurkat [32] = experiment: Inhibition of galectin-1 induced apoptosis in human Jurkat T cells assessed as reduction in caspase-3 activation upto 24 uM incubated for 24 hrs by CellEvent caspase-3/7 green fluorescent detection reagent based imaging analysis; type: functional, cell-based

T1 sequence (P09382 whole entry): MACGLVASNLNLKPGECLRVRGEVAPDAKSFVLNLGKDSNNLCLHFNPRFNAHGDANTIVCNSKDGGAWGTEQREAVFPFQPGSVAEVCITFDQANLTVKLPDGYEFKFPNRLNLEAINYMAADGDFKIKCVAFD

Kd (Galectin-1 [1]): 1700 nM | Kd (Galectin-3 [2]): 1300 nM
SMILES: OC[C@H]1O[C@H](Sc2ccc(Cl)c(Cl)c2)[C@H](O)[C@@H](n2cc(-c3nncs3)nn2)[C@H]1O

SMILES: OC[C@H]1O[C@H](Sc2cc(Cl)c(F)c(Cl)c2)[C@H](O)[C@@H](n2cc(-c3nccs3)nn2)[C@H]1O
IC50 at 72 h [3]: > 90000 nM | logD at 1 h [4]: 3.1 | Kd (Galectin-1 [1]): 410 nM | Kd (Galectin-3 [2]): 2700 nM | Papp A→B at 1.5 h, 10 µM [5]: 11 ×10⁻⁶ cm/s | Papp B→A at 1.5 h, 10 µM [6]: 31 ×10⁻⁶ cm/s | hepatocyte CLint at 2 µM [7]: < 1 µL/min/1e6 cells | hepatocyte CLint at 2 µM [8]: < 1.5 µL/min/1e6 cells | fraction unbound at 5 h, 2 µM [9]: 0.038 | fraction unbound at 5 h, 2 µM [10]: 0.013 | Kd (Galectin-4 [11]): 37000 nM | Kd (Galectin-4 [12]): 2500 nM | Kd (Galectin-7): 60000 nM | Kd (Galectin-8 [13]): 65000 nM | Kd (Galectin-8 [14]): 130000 nM | Kd (Galectin-9 [15]): 16000 nM | Kd (Galectin-9 [16]): 23000 nM | Kd (Galectin-1 [17]): 230 nM | Kd (Galectin-3 [18]): 5800 nM | Kd (Galectin-1 [19]): 644 nM | Kd (Galectin-1 [20]): 363 nM | Kd (Galectin-3 [21]): 62600 nM | Kd (Galectin-3 [22]): 70400 nM | Activity (A549): 46.6% | IC50 (Jurkat [23]): 2300 nM | clearance [24]: 7.5 mL/min/kg | Vd [25]: 0.4 L/kg | Tmax [26]: 30 min | Cmax [27]: 6900 ng/mL | AUC(0-inf) [28]: 3200 ng·h/mL | bioavailability [29]: > 99%

logD at 1 h [4]: 2.9 | Kd (Galectin-1 [1]): 330 nM | Kd (Galectin-3 [2]): 2900 nM | Papp A→B at 1.5 h, 10 µM [5]: 9 ×10⁻⁶ cm/s | Papp B→A at 1.5 h, 10 µM [6]: 30 ×10⁻⁶ cm/s | hepatocyte CLint at 2 µM [7]: < 1 µL/min/1e6 cells | hepatocyte CLint at 2 µM [8]: < 1.5 µL/min/1e6 cells | fraction unbound at 5 h, 2 µM [9]: 0.033 | fraction unbound at 5 h, 2 µM [10]: 0.015
SMILES: OC[C@H]1O[C@H](Sc2cc(Cl)c(F)c(Cl)c2)[C@H](O)[C@@H](n2cc(-c3cscn3)nn2)[C@H]1O

logD at 1 h [4]: 2 | Kd (Galectin-1 [1]): 680 nM | Kd (Galectin-3 [2]): 1700 nM | Papp A→B at 1.5 h, 10 µM [5]: 4.5 ×10⁻⁶ cm/s | Papp B→A at 1.5 h, 10 µM [6]: 31 ×10⁻⁶ cm/s
SMILES: OC[C@H]1O[C@H](Sc2cncc(Br)c2)[C@H](O)[C@@H](n2cc(-c3ccsc3)nn2)[C@H]1O

Kd (Galectin-1 [1]): 22000 nM | Kd (Galectin-3 [2]): 3000 nM
SMILES: OC[C@H]1O[C@H](Sc2cc(Cl)c(F)c(Cl)c2)[C@H](O)[C@@H](n2cc(-c3cncs3)nn2)[C@H]1O

logD at 1 h [4]: 2.3 | Kd (Galectin-1 [1]): 640 nM | Kd (Galectin-3 [2]): 2100 nM | Papp A→B at 1.5 h, 10 µM [5]: 0.4 ×10⁻⁶ cm/s | Papp B→A at 1.5 h, 10 µM [6]: 25 ×10⁻⁶ cm/s
SMILES: OC[C@H]1O[C@H](Sc2ccc(Cl)c(Cl)c2)[C@H](O)[C@@H](n2cc(-c3ncc[nH]3)nn2)[C@H]1O

Kd (Galectin-1 [1]): 970 nM | Kd (Galectin-3 [2]): 1500 nM
SMILES: OC[C@H]1O[C@H](Sc2cc(Cl)c(F)c(Cl)c2)[C@H](O)[C@@H](n2cc(-c3cccs3)nn2)[C@H]1O

Kd (Galectin-1 [1]): 2000 nM | Kd (Galectin-3 [2]): 3400 nM
SMILES: OC[C@H]1O[C@H](Sc2ccc(Cl)c(Cl)c2)[C@H](O)[C@@H](n2cc(-c3ncsn3)nn2)[C@H]1O

Papp A→B at 1.5 h, 10 µM [5]: 19 ×10⁻⁶ cm/s | Papp B→A at 1.5 h, 10 µM [6]: 20 ×10⁻⁶ cm/s
SMILES: OC[C@H]1O[C@H](Sc2ccc(Cl)c(Cl)c2)[C@H](O)[C@@H](n2cc(-c3cc(F)c(F)c(F)c3)nn2)[C@H]1O

Kd (Galectin-1 [30]): < 10 nM | Kd (Galectin-3 [31]): 65 nM
SMILES: OC[C@H]1O[C@@H](S[C@@H]2O[C@H](CO)[C@H](O)[C@H](n3cc(-c4ccsc4)nn3)[C@H]2O)[C@H](O)[C@@H](n2cc(-c3ccsc3)nn2)[C@H]1O

logD at 1 h [4]: > 4 | Kd (Galectin-1 [1]): 350 nM | Kd (Galectin-3 [2]): 8000 nM | Papp A→B at 1.5 h, 10 µM [5]: 6 ×10⁻⁶ cm/s | Papp B→A at 1.5 h, 10 µM [6]: 50 ×10⁻⁶ cm/s | hepatocyte CLint at 2 µM [7]: 1.1 µL/min/1e6 cells | hepatocyte CLint at 2 µM [8]: < 1.5 µL/min/1e6 cells | fraction unbound at 5 h, 2 µM [9]: 0.068 | fraction unbound at 5 h, 2 µM [10]: 0.033
SMILES: OC[C@H]1O[C@H](Sc2ccc(Cl)c(Cl)c2)[C@H](O)[C@@H](n2cc(-c3cscn3)nn2)[C@H]1O

SMILES: CN(C)CCNC(=O)COc1c2cccc1Cc1cccc(c1OCC(=O)NCCN(C)C)Cc1cccc(c1OCC(=O)NCCN(C)C)Cc1cccc(c1OCC(=O)NCCN(C)C)C2
inhibition (Jurkat [32]): inactive

logD at 1 h [4]: 3.6 | Kd (Galectin-1 [1]): 280 nM | Kd (Galectin-3 [2]): 2100 nM | Papp A→B at 1.5 h, 10 µM [5]: 10 ×10⁻⁶ cm/s | Papp B→A at 1.5 h, 10 µM [6]: 18 ×10⁻⁶ cm/s | hepatocyte CLint at 2 µM [7]: 4.9 µL/min/1e6 cells | hepatocyte CLint at 2 µM [8]: 15 µL/min/1e6 cells | fraction unbound at 5 h, 2 µM [9]: 0.014 | fraction unbound at 5 h, 2 µM [10]: 0.015
SMILES: OC[C@H]1O[C@H](Sc2ccc(Cl)c(Cl)c2)[C@H](O)[C@@H](n2cc(-c3ccsc3)nn2)[C@H]1O

Kd (Galectin-1 [1]): 2700 nM | Kd (Galectin-3 [2]): 11000 nM
SMILES: OC[C@H]1O[C@H](Sc2ccc(Cl)c(Cl)c2)[C@H](O)[C@@H](n2cc(-c3ncco3)nn2)[C@H]1O

— ChEMBL document CHEMBL5356960, “Discovery of Selective and Orally Available Galectin-1 Inhibitors” (J Med Chem, 2023)
